Where no end group is shown, it is not given here.
Assay: Secondary structure analysis by circular dichroism (helical content)
Format: physicochemical
Conditions: for Helical content (%) 30% TFE: PBS containing 30% trifluoroethanol, 50 μM peptide; for Helical content (%) PBS: PBS pH 7.0, 50 μM peptide
Method: The secondary structures of peptides synthesized in the above Example were analyzed by means of circular dichroism and the circular dichroism spectra of synthesized peptides were analyzed by using 715 CD spectropolarimeter (Jasco Co., Ltd., JAPAN). The peptides of WT(SEQ ID NO. 4), MT(SEQ ID NO. 5), Ncap-MT(SEQ ID NO. 7), Caps-WT(SEQ ID NO. 8), Caps-MT(SEQ ID NO. 9) were dissolved in PBS(pH 7.0) with 100 mM sodium phosphate and 150 mM NaCl to make the final concentration of each peptide 50 μM and were placed for spectrum analyses.
(2)Analyses of Secondary Structures of Peptides in Phosphate Buffered Saline (PBS) containing Trifluoroethanol Experiments were performed the same as described in the above Experimental Example 1 (1) with the exception that the PBS contained 30% trifluoroethanol.

Row | Substance | Helical content (%) 30% TFE | Helical content (%) PBS
1 | WMEWDREINNYTSLIHSLI [WT] | 24% | 18%
2 | APKEWMAWAREIAAYAKLIAALI-NH2 [Ncap-MT, APKEWMaWaREIaaYakLIaaLI] | 68% | 69%
3 | APKEWMEWDREINNYTSLIHSLIKQGI-NH2 [Caps-WT] | 77% | 21%

Source: patent publication US6489449B2, “Peptides for inhibition of HIV infection” (priority 2000, dated 2002)
